Values joined by “and” are separate entries in the source; they are usually repeats but may differ in a detail not shown here. Identical values can stand only once. Square brackets hold non-standard residues; d marks the D form. Peptide text beside a SMILES is read from it. * marks the point of attachment. X1 = COc1ccc(COC(=O)*)cc1; Cbz = O=C(OCc1ccccc1)*; Boc = CC(C)(C)OC(=O)*; Bn = c1ccc(C*)cc1

Data on six compounds can be found in patent publication US4086219A, “Nonapeptides and methods for their production” (Parke, Davis & Company, priority 1976, dated 1978).

This assay deals with LRF-induced luteinizing hormone (LH) release. The assay can be described thus: In vitro LRF antagonist test in rat anterior pituitary cell cultures. It counts as cell-based. The method, then: Nonapeptides of this invention are screened for LRF antagonist activity in vitro using rat anterior pituitary cell cultures as described by Vale et al. [Endocrinology, 91, 562 (1972)]. The inhibition of LRF-induced luteinizing hormone (LH) release into the culture medium is the endpoint in this in vitro bioassay. Active peptides are then tested in vivo by the procedures of Humphrey et al. [Endocrinology, 92, 1515 (1972)]. Antagonist activity is asessed by the inhibition of LRF-induced LH release in the female rat and LRF-induced ovulation in the rabbit.

Where [1] appears, read: Molar Conc. 1 × 10^-5, LRF 5 × 10^-10, first series (LRF Control 71.56).
The mark [2] stands for this setting: Molar Conc. 1 × 10^-6, LRF 5 × 10^-10, first series (LRF Control 71.56).
Setting [3] is: Molar Conc. 1 × 10^-7, LRF 5 × 10^-10, first series (LRF Control 71.56).
The mark [4] stands for this setting: Molar Conc. 1 × 10^-8, LRF 5 × 10^-10, first series (LRF Control 71.56).
Where [5] appears, read: Molar Conc. 1 × 10^-8, LRF 5 × 10^-10, second series of the compound.
The mark [6] stands for this setting: Molar Conc. 1 × 10^-9, LRF 5 × 10^-10, second series of the compound.
Setting [7] is: Molar Conc. 2.5 × 10^-9, LRF 5 × 10^-10, second series of the compound.
Setting [8] is: Molar Conc. 5 × 10^-9, LRF 5 × 10^-10, second series of the compound.
[9] abbreviates: Molar Conc. 2.5 × 10^-10, LRF 5 × 10^-10, second series of the compound.
The mark [10] stands for this setting: Molar Conc. 5 × 10^-10, LRF 5 × 10^-10, second series of the compound.
[11] abbreviates: Molar Conc. 1 × 10^-9, LRF 3.5 × 10^-10.
[12] abbreviates: Molar Conc. 1 × 10^-10, LRF 3.5 × 10^-10.
[13] abbreviates: Molar Conc. 2 × 10^-9, LRF 3.5 × 10^-10.
Where [14] appears, read: Molar Conc. 2 × 10^-10, LRF 3.5 × 10^-10.
Where [15] appears, read: Molar Conc. 3.5 × 10^-9, LRF 3.5 × 10^-10.
Where [16] appears, read: Molar Conc. 3.5 × 10^-10, LRF 3.5 × 10^-10.
Where [17] appears, read: Molar Conc. 6 × 10^-9, LRF 3.5 × 10^-10.
Where [18] appears, read: Molar Conc. 6 × 10^-10, LRF 3.5 × 10^-10.
Setting [19] is: Molar Conc. 1.2 × 10^-8, LRF 3.5 × 10^-10.
The mark [20] stands for this setting: Molar Conc. 2 × 10^-8, LRF 3.5 × 10^-10.
[21] abbreviates: Molar Conc. 4 × 10^-8, LRF 3.5 × 10^-10.
The mark [22] stands for this setting: Molar Conc. 4 × 10^-9, LRF 3.5 × 10^-10.
Where [23] appears, read: Molar Conc. 7 × 10^-8, LRF 3.5 × 10^-10.
The mark [24] stands for this setting: Molar Conc. 7 × 10^-9, LRF 3.5 × 10^-10.
Setting [25] is: Molar Conc. 1 × 10^-8, LRF 3.5 × 10^-10.
Setting [26] is: Molar Conc. 2.5 × 10^-8, LRF 3.5 × 10^-10.
Setting [27] is: Molar Conc. 2.5 × 10^-9, LRF 3.5 × 10^-10.
[28] abbreviates: Molar Conc. 2.5 × 10^-10, LRF 3.5 × 10^-10.
The mark [29] stands for this setting: Molar Conc. 6 × 10^-8, LRF 3.5 × 10^-10.

In the case of `CC[C@H](C)[C@H](NC(=O)OCc1ccccc1)C(=O)N[C@@H](Cc1c[nH]c2ccccc12)C(=O)N[C@@H](CO)C(=O)N[C@@H](Cc1ccc(O)cc1)C(=O)N[C@H](Cc1c[nH]c2ccccc12)C(=O)N[C@@H](CC(C)C)C(=O)N[C@@H](CCCNC(=N)N)C(=O)N1CCC[C@H]1C(=O)NCC(N)=O` [N^α -Benzyloxycarbonyl-L-isoleucyl-L-tryptophyl-L-seryl-L-tyrosyl-D-tryptophyl-L-leucyl-L-arginyl-L-prolyl-glycinamide] (Cbz-IWSY[dW]LRPG-NH2), the “% LH Release Inhibition” value by setting is: under setting [1], 96%; under setting [2], 96%; under setting [3], 96%; under setting [4], 95%; under setting [5], 98%; under setting [6], 41%. Further, the “% LH Release Inhibition” value under setting [7] turned out to be 70% and the “% LH Release Inhibition” value under setting [8] is 87%. In addition, the “LH Value” is, setting by setting: under setting [1], 20.69 ng/mL; under setting [2], 20.24 ng/mL; under setting [3], 20.50 ng/mL; under setting [4], 21.04 ng/mL; under setting [5], 14.00 ng/mL; under setting [6], 36.46 ng/mL. The “LH Value” came to 24.96 ng/mL under setting [7] and 18.49 ng/mL under setting [8].

`COc1ccc(COC(=O)N[C@@H](COCc2ccccc2)C(=O)N[C@@H](Cc2c[nH]c3ccccc23)C(=O)N[C@@H](CO)C(=O)N[C@@H](Cc2ccc(O)cc2)C(=O)N[C@H](Cc2ccccc2)C(=O)N[C@@H](CC(C)C)C(=O)N[C@@H](CCCNC(=N)N)C(=O)N2CCC[C@H]2C(=O)NCC(N)=O)cc1.Cl` [N^α -p-Methoxybenzyloxycarbonyl-O-benzyl-L-seryl-L-tryptophyl-L-seryl-L-tyrosyl-D-phenylalanyl-L-leucyl-L-arginyl-L-prolyl-glycinamide hydrochloride] (X1-S(Bn)WSY[dF]LRPG-NH2): the “% LH Release Inhibition” value runs as follows: under setting [3], 99%; under setting [4], 105%; under setting [5], 88%; under setting [6], 41%; under setting [9], 35%; under setting [10], 52%. For the same compound, the “LH Value” is, setting by setting: under setting [3], 18.59 ng/mL; under setting [4], 15.95 ng/mL; under setting [5], 16.01 ng/mL; under setting [6], 32.94 ng/mL; under setting [9], 34.87 ng/mL; under setting [10], 28.95 ng/mL.

Consider `CC(C)C[C@H](NC(=O)[C@@H](Cc1ccccc1)NC(=O)[C@H](Cc1ccc(O)cc1)NC(=O)[C@H](CO)NC(=O)[C@H](Cc1c[nH]c2ccccc12)NC(=O)[C@H](COCc1ccccc1)NC(=O)OCc1ccccc1)C(=O)N[C@@H](CCCNC(=N)N)C(=O)N1CCC[C@H]1C(=O)NCC(N)=O.Cl` [N^α -Benzyloxycarbonyl-O-benzyl-L-seryl-L-tryptophyl-L-seryl-L-tyrosyl-D-phenylalanyl-L-leucyl-L-arginyl-L-prolyl-glycinamide hydrochloride] (Cbz-S(Bn)WSY[dF]LRPG-NH2), for which the “% LH Release Inhibition” value stood at 56% under setting [11]; 0% under setting [12]; 88% under setting [13]; 14% under setting [14]; 99% under setting [15]; 36% under setting [16]. Besides, the “% LH Release Inhibition” value is given as 109% under setting [17] and 52% under setting [18]. For the same compound, the “LH Value” was 17.85 ng/mL under setting [11]; 34.50 ng/mL under setting [12]; 9.84 ng/mL under setting [13]; 28.47 ng/mL under setting [14]; 6.96 ng/mL under setting [15]; 23.09 ng/mL under setting [16]. Also, the “LH Value” is, setting by setting: under setting [17], 4.59 ng/mL; under setting [18], 18.89 ng/mL.

For the compound “LRF: luteinizing hormone releasing factor, also called luteinizing hormone releasing hormone (LH-RH); stimulates secretion of luteinizing hormone from the anterior pituitary (QHWSYGLRPG; Gonadoliberin-1; UniProt P01148 24-33, looked up) [reference compound]”, the “LH Value” is, setting by setting: (LRF alone, Molar Conc. 3.5 × 10^-10 (control of each series)) 26.23 ng/mL and 40.92 ng/mL and 32.11 ng/mL; (LRF alone, Molar Conc. 5 × 10^-10 (control of each series)) 71.56 ng/mL and 47.31 ng/mL and 52.80 ng/mL.

Regarding `CC(C)C[C@H](NC(=O)[C@@H](Cc1ccccc1)NC(=O)[C@H](Cc1ccc(O)cc1)NC(=O)[C@H](CO)NC(=O)[C@H](Cc1c[nH]c2ccccc12)NC(=O)[C@H](CCC(N)=O)NC(=O)OCc1ccccc1)C(=O)N[C@@H](CCCNC(=N)N)C(=O)N1CCC[C@H]1C(=O)NCC(N)=O` [N^α -Benzyloxycarbonyl-L-glutaminyl-L-tryptophyl-L-seryl-L-tyrosyl-D-phenylalanyl-L-leucyl-L-arginyl-L-prolyl-glycinamide] (Cbz-QWSY[dF]LRPG-NH2), the “% LH Release Inhibition” value under setting [19] is 71%; the “% LH Release Inhibition” value under setting [20] is listed as 90%; the “% LH Release Inhibition” value under setting [13] stood at 21%; the “% LH Release Inhibition” value under setting [21] is recorded as 91%; the “% LH Release Inhibition” value under setting [22] worked out at 30%; the “% LH Release Inhibition” value under setting [23] is reported as 93%. In addition, the “% LH Release Inhibition” value under setting [24] stood at 42%. Further, the “LH Value” by setting is: under setting [19], 13.47 ng/mL; under setting [20], 10.07 ng/mL; under setting [13], 22.43 ng/mL; under setting [21], 9.79 ng/mL; under setting [22], 20.76 ng/mL; under setting [23], 9.49 ng/mL. Besides, under setting [24], the “LH Value” was 18.60 ng/mL.

In the case of `CC(C)C[C@H](NC(=O)[C@@H](Cc1c[nH]c2ccccc12)NC(=O)[C@H](Cc1ccc(O)cc1)NC(=O)[C@H](CO)NC(=O)[C@H](Cc1c[nH]c2ccccc12)NC(=O)[C@H](COCc1ccccc1)NC(=O)OC(C)(C)C)C(=O)N[C@@H](CCCNC(=N)N)C(=O)N1CCC[C@H]1C(=O)NCC(N)=O` [N^α -t-Butoxycarbonyl-O-benzyl-L-seryl-L-tryptophyl-L-seryl-L-tyrosyl-D-tryptophyl-L-leucyl-L-arginyl-L-prolyl-glycinamide] (Boc-S(Bn)WSY[dW]LRPG-NH2), the “% LH Release Inhibition” value runs as follows: under setting [25], 104%; under setting [11], 64%; under setting [26], 104%; under setting [27], 72%; under setting [28], 39%; under setting [29], 108%. Besides, the “% LH Release Inhibition” value is, setting by setting: under setting [17], 99%; under setting [18], 50%. Moreover, the “LH Value” is, setting by setting: under setting [25], 8.96 ng/mL; under setting [11], 21.44 ng/mL; under setting [26], 8.95 ng/mL; under setting [27], 18.85 ng/mL; under setting [28], 29.05 ng/mL; under setting [29], 7.80 ng/mL. For the same compound, the “LH Value” under setting [17] is 10.64 ng/mL and the “LH Value” under setting [18] stood at 25.53 ng/mL.
